From patent US4501892A, “Pyridyl benzenediols” (The Upjohn Company, priority 1982, dated 1985) come the findings set out here.

This assay concerns the target T1, TXA2 synthetase (Homo sapiens, UniProt P24557).
T1 construct: human platelet microsomes (HPM); from tissue; host or cells: human platelet microsomes
T1 sequence (P24557 1-533): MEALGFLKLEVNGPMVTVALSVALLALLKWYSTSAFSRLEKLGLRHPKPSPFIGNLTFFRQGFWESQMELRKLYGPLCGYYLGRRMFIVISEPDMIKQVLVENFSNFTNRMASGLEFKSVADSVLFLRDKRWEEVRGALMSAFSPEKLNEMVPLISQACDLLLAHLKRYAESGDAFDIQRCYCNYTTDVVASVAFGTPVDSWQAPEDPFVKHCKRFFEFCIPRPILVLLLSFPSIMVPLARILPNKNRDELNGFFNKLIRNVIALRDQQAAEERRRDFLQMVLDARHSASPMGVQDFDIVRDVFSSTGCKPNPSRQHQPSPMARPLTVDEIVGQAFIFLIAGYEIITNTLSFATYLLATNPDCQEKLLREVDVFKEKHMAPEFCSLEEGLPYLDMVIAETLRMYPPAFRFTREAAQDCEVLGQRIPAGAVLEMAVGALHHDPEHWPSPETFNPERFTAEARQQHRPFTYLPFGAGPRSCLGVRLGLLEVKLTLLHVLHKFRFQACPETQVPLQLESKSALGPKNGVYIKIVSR
Put plainly: TXA2 inhibition test: PGH2 mixed with human platelet microsomes (HPM), TXA2 measured by response of superfused rabbit aortic strips. It counts as biochemical. Particulars: rabbit aorta response; for effectiveness in inhibiting TXA2 formation (in words): PGH2 + human platelet microsomes. On the procedure:
The compounds of the present invention were tested for TXA2 inhibition as follows:
Rabbit aortic strips were superfused in series with Krebs solution. Thromboxane A2 (TXA2) was generated by mixing prostaglandin H2 (PGH2) with human platelet microsomes (HPM).
Potential inhibitors were tested by comparing the response of the rabbit aorta to the amount of TXA2 produced by mixing PGH2 and HPM without the test compound in the reaction medium and then the amount of TXA2 produced when the test compound was added to the HPM 5 minutes before the HPM was mixed with PGH2. […] For a discussion of TXA2 synthetase inhibition testing see, e.g., R. Gorman, supra.

Consider “2,3-Dihydro-7-(and 6-)(3-pyridinylmethyl)-1,4-benzodioxin-2-carboxylic acid, sodium salt”, for which the “effectiveness in inhibiting TXA2 formation (in words)” value is reported as “most effective”.
Take `COC(=O)C1Oc2ccc(Cc3cccnc3)cc2O1` (racemic) [Example 1, dl-4-(3-Pyridinylmethyl)-1,2-benzenediol, methyl glyoxylate acetal]: the “effectiveness in inhibiting TXA2 formation (in words)” value is reported as “most effective”. Besides, the IC50 (test compound added to HPM 5 minutes before mixing with PGH2, read-out: approximate ED50 (inhibition of TXA2 formation) (converted)) was around 369 nM.
